# Values of other authors in US10953021B2, “Topical compositions of flunisolide and methods of treatment” (Lupin Limited, priority 2013, dated 2021).
# What was measured:
# [1] = animal anti-inflammatory assays, versus cortisol
# [2] = McKenzie skin blanching test, versus dexamethasone
smiles,measurement,setting,value
"CC1(C)O[C@@H]2C[C@H]3[C@@H]4C[C@H](F)C5=CC(=O)C=C[C@]5(C)[C@H]4[C@@H](O)C[C@]3(C)[C@]2(C(=O)CO)O1 [Flunisolide, 6α-fluoro-11β, 21-dihydroxy-16α,17α-(isopropylidenedioxy)pregna-1,4-diene-3,20-dione]",anti-inflammatory potency relative to cortisol,[1],several hundred times more potent than cortisol
same,anti-inflammatory effects relative to dexamethasone,[2],several hundred times more potent than dexamethasone
